This is an account of results in patent US10688093B2, “Methods, compositions, and uses of novel Fyn kinase inhibitors” (priority 2015, dated 2020).

The target of one assay is full-length recombinant human FYN A (Homo sapiens (Human), UniProt P06241). Briefly: ADP-Glo Kinase Assay of FYN kinase inhibition. In kind it is biochemical. The note with it: primary screen, initial compounds. The method in brief: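 ADP-Glo read-out of peptide phosphorylation after 90 min RT with 12.5 pmol ATP and 100 pg 12-mer substrate. Enzyme was N-GST full-length human FYN A from insect cells, 3 pg, pre-incubated 30 min with compound, 10 points from 10 μM top, 3-fold steps; IC50 from curve.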
full-length recombinant human FYN A, sequence (P06241 whole entry): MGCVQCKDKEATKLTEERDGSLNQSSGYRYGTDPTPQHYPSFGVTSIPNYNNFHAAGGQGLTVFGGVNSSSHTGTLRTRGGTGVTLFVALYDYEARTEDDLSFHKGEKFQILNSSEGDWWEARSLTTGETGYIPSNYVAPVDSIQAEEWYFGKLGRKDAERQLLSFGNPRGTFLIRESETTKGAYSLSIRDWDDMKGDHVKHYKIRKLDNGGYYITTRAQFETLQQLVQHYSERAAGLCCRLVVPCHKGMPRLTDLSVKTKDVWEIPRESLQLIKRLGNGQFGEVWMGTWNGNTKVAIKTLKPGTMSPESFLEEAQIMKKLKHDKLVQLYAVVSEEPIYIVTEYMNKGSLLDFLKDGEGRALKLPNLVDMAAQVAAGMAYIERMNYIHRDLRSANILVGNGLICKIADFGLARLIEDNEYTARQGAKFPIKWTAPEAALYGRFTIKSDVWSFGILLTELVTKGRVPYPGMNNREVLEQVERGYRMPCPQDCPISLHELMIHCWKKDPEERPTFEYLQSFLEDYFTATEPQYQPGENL
`c1csc(CNc2nn3c(-c4ccc(N5CCOCC5)cc4)cnc3s2)c1` [Compound 554, 5-(4-morpholino-phenyl)-N-(2-thienylmethyl) imidazo[2,1-b] [1,3,4]thiadiazol-2-amine]: the IC50 (as a rule, the concentration needed to halve the response being measured) came out at 3.82 µM.
`COc1cc(-c2cnc(N)c(-c3ccc(O)cc3)c2)cc(OC)c1OC` [382_7249_0087, 4-[2-amino-5-(3,4,5-trimethoxy-phenyl)-3-pyridyl]phenol]: the IC50 is 0.209 µM.
As for `COc1cc(-c2cc(-c3ccccc3Oc3ccccc3)cnc2N)cc(OC)c1OC` [382_0087_0063, 5-(2-phenoxyphenyl)-3-(3,4,5-trimethoxy-phenyl)pyridin-2-amine], the IC50 came to 9.01 µM.
`COc1ccc(-c2ccc3ncc(-c4cccc(C(C)=O)c4)n3n2)cc1OC` [Compound 277, 1-[3-[6-(3,4-dimethoxyphenyl)imidazo[1,2-b]pyridazin-3-yl]phenyl] ethanone]: the IC50 stood at 0.653 µM.
Take `COc1ccc(CNc2nn3c(-c4cncc(OC)c4)cnc3s2)cc1` [Compound 588, N-[(4-methoxyphenyl)methyl]-5-(5-methoxy-3-pyridyl)imidazo [2,1-3][1,3,4] thiadiazol-2-amine]: the IC50 came to 9.65 µM.
On the same count and under the same terms, then `Oc1cccc(-c2cnc3ccc(-c4ccoc4)nn23)c1` [Compound 412, 3-[6-(3-furyl)imidazo[1,2-b]pyridazin-3-yl]phenol], with 1.06 µM; and `CNc1ccc2ncc(-c3ccccc3O)n2n1` [Compound 437_0340, 2-[6-(methylamino)imidazo[1,2-b]pyridazin-3-yl]phenol], with 1.13 µM; and `OCc1ccc(-c2ccc3ncc(-c4ccc(CO)cc4)n3n2)cc1` [Compound 449, [4-[3-[4-(hydroxymethyl)phenyl]imidazo [1,2-b]pyridazin-6-yl]phenyl] methanol], with 1.04 µM.
With `CN(C)CCCNC(=O)c1ccc(-c2cn3c(-c4ccc5c(c4)OCO5)cnc3cn2)cc1` [Compound 244, 4-[3-(1,3-benzodioxol-5-yl)imidazo[1,2-a]pyrazin-6-yl]-N-[3-(dimethylamino)propyl]benzamide], the IC50 worked out at 6.03 µM.
As to `COc1ccc(-c2cnc3sc(NC4CCC(O)CC4)nn23)cc1OC` (stereo not shown) [Compound 572, 4-[[5-(3,4-dimethoxyphenyl)imidazo[2,1-b] [1,3,4]thiadiazol-2-yl]amino] cyclohexanol], the IC50 is 0.483 µM.
Consider `COc1cc(-c2cnc3ccc(-c4cccc(CO)c4)nn23)ccc1O` [Compound 420, 4-[6-[3-(hydroxymethyl)phenyl]imidazo [1,2-b]pyridazin-3-yl]-2-methoxy-phenol], for which the IC50 was 0.102 µM.
For the molecule `COc1ccc(-c2cnc3sc(NCC(C)C)nn23)cc1OC` [Compound 582, 5-(3,4-dimethoxy-phenyl)-N-isobutyl-imidazo [2,1-b][1,3,4] thiadiazol-2-amine], the IC50 was determined as 2.75 µM.
For `c1ccc(-c2cnc3ccc(-c4cccnc4)nn23)cc1` [Compound 331, 3-phenyl-6-(3-pyridyl)imidazo [1,2-b]pyridazine], the IC50 turned out to be 3.84 µM.
Regarding `COc1cc(-c2cc(-c3cc(OC)c(OC)c(OC)c3)cnc2N)ccc1O` [382_0314_0087, 4-[2-amino-5-(3,4,5-trimethoxy-phenyl)-3-pyridyl]-2-methoxy-phenol], the concentration for half-maximal inhibition (IC50) came to 0.0806 µM.
Take `CN(C)CCNC(=O)c1cccc(-c2cnc3ccc(-c4cccc(CO)c4)nn23)c1` [Compound 463, N-(2-dimethylamino-ethyl)-3-[6-[3-(hydroxymethyl)phenyl]imidazo [1,2-b]pyridazin-3-yl]benzamide]: the IC50 was 0.816 µM.
On the same count and under the same terms, the result for `c1cc(CCNc2nn3c(-c4ccncc4)cnc3s2)ccn1` [Compound 562] reads 2.43 µM.
With `COc1cc(-c2cnc3cnc(-c4ccccc4N(C)C)cn23)ccc1O` [388_0314_0006, 4-[6-[2-(dimethylamino)phenyl]imidazo [1,2-a]pyrazin-3-yl]-2-methoxy-phenol], the IC50 was determined as 1.75 µM.
The same measure, in the same setting: then `COc1ccc(-c2cnc3sc(NCc4cccnc4)nn23)cn1` [Compound 560, 5-(6-methoxy-3-pyridyl)-N-(3-pyridylmethyl) imidazo[2,1-b] [1,3,4]thiadiazol-2-amine], with 2.94 µM; and `CN(C)c1ccc(-c2ccc3ncc(-c4ccncc4)n3n2)cc1` [Compound 337, N,N-dimethyl-4-[3-(4-pyridyl)imidazo[1,2-b]pyridazin-6-yl]aniline], with 0.398 µM.
In the case of `CN(C)CCNC(=O)c1cccc(-c2cnc3ccc(-c4cccc(Oc5ccccc5)c4)nn23)c1` [Compound 470, N-(2-dimethylamino-ethyl)-3-[6-(3-phenoxyphenyl)imidazo[1,2-b]pyridazin-3-yl]benzamide], the IC50 worked out at 19.2 µM.
On the same count and under the same terms, the result for `CNc1ccc2ncc(-c3cccc(NC(C)=O)c3)n2n1` [Compound 437_0081, N-[3-[6-(methylamino)imidazo[1,2-b]pyridazin-3-yl]phenyl] acetamide] reads 1.75 µM; that for `CC(=O)Nc1cccc(-c2cnc3ccc(NC4CCOCC4)nn23)c1` [229_0242_0081, N-[3-[6-(tetrahydro-pyran-4-ylamino)imidazo[1,2-b]pyridazin-3-yl]phenyl] acetamide], 0.588 µM; that for `CC(=O)Nc1cccc(-c2cnc3sc(NCc4ccco4)nn23)c1` [Compound 256, N-[3-[2-(2-furylmethylamino)imidazo[2,1-a] [1,3,4]thiadiazol-5-yl]phenyl] acetamide], 4.57 µM.
Take `c1ccc(-c2cnc3ccc(NCc4ccco4)nn23)cc1` [229_0144_0061, N-(2-furylmethyl)-3-phenyl-imidazo[1,2-b]pyridazin-6-amine]: the IC50 was 6.38 µM.
As for `CN(C)CCNC(=O)c1ccc(-c2cn3c(-c4ccc(Oc5ccccc5)cc4)cnc3cn2)cc1` [Compound 218, N-(2-dimethylamino-ethyl)-4-[3-(4-phenoxyphenyl)imidazo[1,2-a]pyrazin-6-yl]benzamide], the IC50 worked out at 0.165 µM.
Take `COc1cc(-c2n[nH]c3nccc(-c4cccc(F)c4)c23)cc(OC)c1OC` [Compound 538, 4-(3-fluorophenyl)-3-(3,4,5-trimethoxy-phenyl)-1H-pyrazolo[3,4-b]pyridine]: the IC50 turned out to be 5.23 µM.
As to `COc1cc(-c2cnc3cnc(-c4ccc(N5CCN(C)CC5)nc4)cn23)ccc1O` [388_0314_0016, 2-methoxy-4-[6-[6-(4-methylpiperazin-1-yl)-3-pyridyl]imidazo [1,2-a]pyrazin-3-yl]phenol], the IC50 came to 1.13 µM.
On the same count and under the same terms, then `CN1CCN(c2ccc(Nc3cc4c(cn3)cc(-c3ccccc3)n4Cc3ccccc3)cc2)CC1` [Compound 311, 1-benzyl-N-[4-(4-methylpiperazin-1-yl)phenyl]-2-phenyl-pyrrolo[3,2-c]pyridin-6-amine], with 15 µM.
With `Nc1ccc(-c2cnc3ccc(NCc4cccs4)nn23)cc1` [229_0146_0333, 3-(4-amino-phenyl)-N-(2-thienylmethyl) imidazo[1,2-b]pyridazin-6-amine], the half-inhibitory concentration (IC50) stood at 5.42 µM.
For the molecule `CN(C)CCCNC(=O)c1ccc(-c2cn3c(-c4cccc(Cl)c4)cnc3cn2)cc1` [Compound 220, 4-[3-(3-chlorophenyl)imidazo[1,2-a]pyrazin-6-yl]-N-[3-(dimethylamino)propyl]benzamide], the IC50 worked out at 8.43 µM.
Take `COc1cc(-c2cc(-c3ccc(C(N)=O)cc3)cnc2N)cc(OC)c1OC` [382_0087_0346, 4-[6-amino-5-(3,4,5-trimethoxy-phenyl)-3-pyridyl]benzamide]: the IC50 came to 0.4 µM.
For `COc1cc(-c2cnc3sc(NCCc4ccncc4)nn23)cc(OC)c1OC` [Compound 284, N-[2-(4-pyridyl)ethyl]-5-(3,4,5-trimethoxy-phenyl)imidazo [2,1-b][1,3,4] thiadiazol-2-amine], the IC50 came to 1.77 µM.
For `Cc1cc(-c2cnc(N)c(-c3cccc(N(C)C)c3)c2)cc(C)c1O` [382_0135_0315, 4-[6-amino-5-[3-(dimethylamino)phenyl]-3-pyridyl]-2,6-dimethyl-phenol], the half-maximal inhibitory concentration (IC50) was found to be 4.2 µM.
Turning to `COc1cc(-c2cnc3cnc(-c4cnn(C)c4)cn23)ccc1O` [388_0314_8400, 2-methoxy-4-[6-(1-methylpyrazol-4-yl)imidazo[1,2-a]pyrazin-3-yl]phenol], the IC50 turned out to be 0.746 µM.
Regarding `Cn1cc(-c2cn3c(-c4ccc(Oc5ccccc5)cc4)cnc3cn2)cn1` [Compound 210, 6-(1-methylpyrazol-4-yl)-3-(4-phenoxyphenyl) imidazo[1,2-a]pyrazine], the IC50 was found to be 1.93 µM.
Turning to `c1cc(-c2cn3c(-c4ccsc4)cnc3cn2)cs1` [Compound 227, 3,6-bis(3-thienyl)imidazo [1,2-a]pyrazine], the IC50 was determined as 8.47 µM.
Take `CC(=O)c1cccc(-c2cnc3ccc(-c4cccc(N(C)C)c4)nn23)c1` [Compound 376, 1-[3-[6-[3-(dimethylamino)phenyl]imidazo [1,2-b]pyridazin-3-yl]phenyl] ethanone]: the IC50 was found to be 0.886 µM.
The same measure, in the same setting: the result for `COc1ccc(-c2cnc3sc(NCCc4ccc(S(N)(=O)=O)cc4)nn23)cc1OC` [Compound 548, 4-[2-[[5-(3,4-dimethoxyphenyl)imidazo[2,1-b] [1,3,4]thiadiazol-2-yl]amino]ethyl]benzene-sulfonamide] reads 5.12 µM; that for `c1cncc(-c2cnc3sc(NCc4cccs4)nn23)c1` [Compound 573, 5-(3-pyridyl)-N-(2-thienylmethyl) imidazo[2,1-b] [1,3,4]thiadiazol-2-amine], 1.94 µM.
For `OCc1ccc(-c2ccc3ncc(-c4ccncc4)n3n2)cc1` [Compound 332], the IC50 amounted to 0.255 µM.
In the case of `CC(=O)Nc1cccc(-c2cnc(N)c(-c3ccc(O)cc3)c2)c1` [382_7249_0081, N-[3-[6-amino-5-(4-hydroxyphenyl)-3-pyridyl]phenyl] acetamide], the IC50 was 0.838 µM.

The assay is the same for the next values; noted with them: secondary screen, re-synthesized and expanded compounds.
In the case of `OCc1cccc(-c2cnc3ccc(-c4cccc(O)c4)nn23)c1` [BF000726195], the IC50 was found to be 1.17 µM.
Same read-out and setting: the result for `COc1cc(-c2cnc3ccc(-c4ccc(CO)cc4)nn23)ccc1O` [BF000726486, 4-[6-[4-(hydroxy-methyl)-phenyl]-imidazo[1,2-b]pyridazin-3-yl]-2-methoxy-phenol] reads 0.0618 µM.
